Experimental data as given in US20130142796A1, “TREATMENT FOR ANGIOGENIC DISORDERS” (priority 2011, published 2013).
“Also recorded” adds a separate entry of the source.

Key:
[1] = tested on: patient with active fluid within or under the retina; test: Case studies of Patients 1-8: intravitreal injection, lesion activity followed by OCT and fluorescein angiography; format: in vivo, human; details: for subretinal fluid: Patient 1, after 21 previous intravitreal injections of either Lucentis or Avastin; for sub-retinal and sub-RPE fluid: Patient 3, after repeated mono-therapy, ranibizumab 11 times or bevacizumab 3 times; for subretinal fluid and cystoid degeneration: despite photodynamic therapy with verteporfin X2, monthly ranibizumab X12, bevacizumab X15
Method: In the following examples, “protocol” treatment means that 0.3 mg of pegaptanib in combination with 0.125 mg of bevacizumab or 0.5 mg of ranibizumab, all in commercially available formulations, were injected intravitreally to a patient, using standard procedures for such injections.
The patient provided written consent following a thorough discussion of relative risks and benefits of the potential use of Macugen® in a combination format with simultaneous administration of intravitreal Avastin®.
Macugen® was first injected intravitreally (0.3 mg in 0.09 cc). Optic nerve perfusion and intraocular pressure were assessed. Upon restoration of adequate perfusion and pressure stabilization, the eye was once again sterilized and a second intravitreal injection of Avastin® (1.25 mg in 0.05 cc) was given. Optic nerve perfusion and intraocular pressure were reassessed, and the patient was scheduled for routine follow-up.

[2] = biological target: heparin-binding domain (HBD) of VEGF (Homo sapiens, UniProt P15692); details: Lee et al., FEBS Lett. 2008; cited from earlier work
heparin-binding domain (HBD) of VEGF, sequence (P15692 137-191 isoform P15692-4 limits assumed): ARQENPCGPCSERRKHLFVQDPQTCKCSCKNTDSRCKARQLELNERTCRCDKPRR

[3] = Patient 4, drug used in isolation after protocol treatment

| Molecule | fluid [1, 3] | binding affinity [2] | subretinal fluid [1] | sub-retinal and sub-RPE fluid [1] | fluid ([1]; Patient 6, re-administration of bevacizumab mono-therapy after protocol treatment) | subretinal fluid and cystoid degeneration ([1]; Patient 7) | fluid and vision ([1]; Patient 7, return to bevacizumab alone after protocol treatment) | subretinal fluid on OCT ([1]; Patient 2, after 33 consecutive intravitreal ranibizumab treatments) | fluorescein angiogram, late frames ([1]; Patient 2, before combination therapy, after 33 intravitreal ranibizumab) | cystoid macular edema (CME) ([1]; Patient 4, despite 10 ranibizumab injections) | lesion activity on angiogram and OCT ([1]; Patient 6, after 22 ranibizumab treatments) | disease management ([1]; Patient 6, ranibizumab mono-therapy after disease was acutely managed with protocol treatment) |
| --- | --- | --- | --- | --- | --- | --- | --- | --- | --- | --- | --- | --- |
| pegaptanib | recurrent fluid | high affinity |  |  |  |  |  |  |  |  |  |  |
| bevacizumab | recurrent fluid |  | chronic subretinal fluid | chronic fluid in the sub-retinal and sub-RPE (retinal pigment epithelium) space | recurrent fluid | subretinal fluid (SRF); also recorded: chronic subretinal fluid and cystoid degeneration | relapse of fluid and vision loss |  |  |  |  |  |
| verteporfin |  |  |  |  |  | chronic subretinal fluid and cystoid degeneration |  |  |  |  |  |  |
| ranibizumab (antibody, chains of the INN, looked up, V domains shown, Fab) VH: EVQLVESGGGLVQPGGSLRLSCAASGYDFTHYGMNWVRQAPGKGLEWVGWINTYTGEPTYAADFKRRFTFSLDTSKSTAYLQMNSLRAEDTAVYYCAKYPYYYGTSHWYFDVWGQGTLVTVSS VL: DIQLTQSPSSLSASVGDRVTITCSASQDISNYLNWYQQKPGKAPKVLIYFTSSLHSGVPSRFSGSGSGTDFTLTISSLQPEDFATYYCQQYSTVPWTFGQGTKVEIK |  |  | chronic subretinal fluid | chronic fluid in the sub-retinal and sub-RPE (retinal pigment epithelium) space |  | subretinal fluid (SRF); also recorded: chronic subretinal fluid and cystoid degeneration |  | subretinal fluid (SRF); also recorded: chronic residual subretinal fluid | leakage from the choroidal neovascular membrane (CNVM) | chronic cystoid macular edema (CME) | persistent lesion activity | could be managed with ranibizumab mono-therapy alone |
